How the values were obtained:
[1] = biological target: T1, Thromboxane A2 receptor (Homo sapiens, UniProt P21731); experiment: In vitro inhibition against TXA2/PGH2 receptor using [3H]-SQ 29,548 as radioligand in human platelet membrane preparation; format: cell membranes; conditions: read-out: I50
T1 sequence (P21731 whole entry): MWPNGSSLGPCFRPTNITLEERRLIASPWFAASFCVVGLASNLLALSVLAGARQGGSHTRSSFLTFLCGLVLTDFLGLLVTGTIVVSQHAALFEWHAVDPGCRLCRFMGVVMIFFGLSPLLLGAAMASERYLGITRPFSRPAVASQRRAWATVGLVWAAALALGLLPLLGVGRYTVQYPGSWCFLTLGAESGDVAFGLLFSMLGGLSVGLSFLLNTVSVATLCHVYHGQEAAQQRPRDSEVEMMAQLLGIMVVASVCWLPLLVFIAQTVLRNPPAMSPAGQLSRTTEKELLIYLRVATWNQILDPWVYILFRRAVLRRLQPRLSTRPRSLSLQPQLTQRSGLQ

[2] = biological target: T1, Thromboxane A2 receptor; experiment: In vitro binding affinity was determined for platelet thromboxane receptor in presence of [3H]-SQ 29548
[3] = species on record: Homo sapiens; experiment: Tested for ability to inhibit arachidonic acid-induced and ADP-induced platelet aggregation of human platelet rich plasma; format: functional; conditions: read-out: I50

O=C(O)CCc1ccccc1CC1C2CCC(O2)C1c1nc(C(=O)NCCc2ccc(Cl)cc2)co1 (stereo not given) gave an IC50 [1] of 0.007 µM.

O=C(O)CCc1ccccc1CC1COCOC1c1nc(C(=O)NCCc2ccc(Cl)cc2)co1 (stereo not given) gave an IC50 [1] of 0.33 µM and a Kd [2] of 0.008 µM.

O=C(O)CCc1ccccc1CC1OCOC1c1nc(C(=O)NCCc2ccc(Cl)cc2)co1 (racemic) gave an IC50 [1] of 0.13 µM and a Kd [2] of 0.0311 µM.

For O=C(O)CCc1ccccc1CC1OCOC1c1nc(C(=O)NCCc2ccc(Cl)cc2)co1 (trans isomer; (+)), the IC50 [1] was 3.1 µM and the Kd [2] was 0.045 µM.

In the case of O=C(O)CCc1ccccc1CC1OCOC1c1nc(C(=O)NCCc2ccc(Cl)cc2)co1 (trans isomer; (-)), the IC50 [1] is reported as 0.31 µM and the Kd [2] is reported as 0.0082 µM.

In the case of CCCCCNC(=O)c1coc(C2C3CCC(O3)C2Cc2ccccc2CCC(=O)O)n1 (stereo not given) [BMS-180291], the IC50 [3] is reported as 0.007 µM.
